Data taken from patent publication US20190117596A1 (WAYNE STATE UNIVERSITY, priority 2016, published 2019).
“Also recorded” adds a separate entry of the source.

Experiments:
S1PR3 expression [1] = assay: S1PR3 up-regulation in K-Ras G12V-expressing HEK293 cells (qPCR); format: cell-based; conditions: HEK293 pBabe-K-Ras G12V, anti-TGF-β 10 μg/ml, SB-431542 10 μM, SIS3 2 μM, 37° C., 24 h
Method: FIGS. 3A-3F. TGF-β/SMAD3 signaling contributes to oncogenic K-Ras mutant-stimulated S1PR3 up-regulation. (3A), P, potential SMAD3 binding sites in S1PR3 promoter. 0, transcription initiation site. (3B-3D), HEK293 cells were stably transfected with pBabe-K-Ras^G12V or pBabe control vector. Levels of total cellular K-Ras (3B), S1PRs (3C), and TGF-β (3D) were measured by qPCR analysis. (3E), HEK293 cells transfected with pBabe-K-Ras^G12V or pBabe control vector were incubated with anti-TGF-β (Cell Signaling, antibody number 3711, 10 μg/ml) or irrelevant normal rabbit IgG (10 μg/ml) at 37° C. for 24 h. Levels of S1PR3 were quantitated by qPCR. (3F), HEK293 cells transfected with pBabe-K-Ras^G12V or pBabe control vector were treated with or without SB-431542 (SB4) (inhibitor of TGF-β receptor 1, 10 μM) or SIS3 (inhibitor of SMAD3, 2 μM) at 37° C. for 24 h. Levels of S1PR3 were quantitated by qPCR. **, p<0.01, n=3, Student's t test.
(§1) Real-time PCR Analysis. Total RNA was isolated using TRIzol reagent (Invitrogen) and was reverse-transcribed with an oligo(dT) primer (Promega) by Moloney Murine Leukemia Virus (M-MLV) Reverse Transcriptase (Promega) for first-strand cDNA synthesis. For real-time PCR quantitation, 50 ng of reversely transcribed cDNAs were amplified with the ABI 7500 system (Applied Biosystems) in the presence of TaqMan DNA polymerase. […]

S1PR3 expression [2] = assay: TGF-β-stimulated S1PR3 up-regulation in HBEC2-KT cells (qPCR); format: cell-based, human; conditions: 30 min pretreatment, SB-431542 10 μM, SIS3 2 μM, SB-203580 50 nM, BAY11-7085 10 μM, JNK inhibitor II 10 μM, TGF-β 4 h
Method: FIGS. 4A-4H. TGF-β/SMAD3 signaling axis up-regulates S1PR3. (4A), HBEC2-KT cells were treated with TGF-β (1 ng/ml) for various times. mRNA levels of S1P receptors were measured by qPCR analysis. Data are mean±S.D. of triplicate determinations. *, p<0.05, Student's t test. (4B), protein levels of S1PR3 in TGF-β (1 ng/ml)-treated HBEC2-KT cells. Lower panel, Western blot intensity was quantitated by National Institutes of Health ImageJ. Data (normalized to actin) are mean±S.D. of triplicate determinations. * and **, p<0.05 and 0.01, respectively, Student's t test. (4C), CHO cells were transduced with adenoviral particles (multiplicity of infection of 200) carrying S1PR1, S1PR2, or S1PR3 vector for 20 h as previously described (8). Extracts were blotted with antibody against S1PR3 (Cayman), S1PR2 (Cayman), or S1PR1 (E49) (8). […] Medium was quantitated for S1P, ceramide (Cer), and sphingomyelin (SPM) by LC-MS/MS (29, 46). […] S1PR3 levels were measured by qPCR, following TGF-β treatment (4 h). […] Activation of p38, JNK, and NFκB was measured by Western blotting with phospho-p38 (P-p38), phospho-JNK (P-p54^JNK and P-p46^JNK), and phospho-IκBα (p-IκBα). […]
Real-time PCR Analysis. […] For real-time PCR quantitation, 50 ng of reversely transcribed cDNAs were amplified with the ABI 7500 system (Applied Biosystems) in the presence of TaqMan DNA polymerase. […]

IL-6 expression = assay: TGF-β-induced IL-6 expression in H1793 lung adenocarcinoma cells (qPCR); format: cell-based, human; conditions: CAY10444 10 μM
Method: FIGS. 14A-14E. S1P3 regulates the TGF-β-stimulated IL-6 expression. (14A) H1793 lung adenocarcinoma cells were pre-treated for 30 min with inhibitor of TGF-β receptor I (SB4, SB431542, 10 uM) or Smad3 (SIS3, 2 uM), followed by stimulating with TGF-β (1 ng/ml) for 4 hrs. Levels of IL-6 were analyzed by qPCR. […] The S1P-induced IL-6 expression is diminished when S1PR3 were knocked-down. (14E) HBEC2-KT normal lung epithelial cells were transduced with adenoviral particles carrying S1PR3 (Ad-S1PR3) or β-galactosidase (Ad-Ctrl, 200 m.o.i.) for overnight, followed by stimulating with or without S1P (200 nM, 4 hrs). mRNA levels of IL-6 were measured by qPCR analysis. Data are mean±SD from a representative experiment (n=3). Each experiment was repeated at least one time with similar results. Data are mean+S.D. (n=3). *, p<0.05; NS, non-statistic significance; t-test.
as §1

[3] = test system: human lung adenocarcinoma cells exhibiting K-Ras G12D mutation; assay: Proliferation and colony formation of cultured lung adenocarcinoma cells; format: cell-based
lung adenocarcinoma = assay: Lung adenocarcinoma in LSL-KRas G12D mouse model (Ad-Cre); format: in vivo; conditions: Ad-Cre injected mice; 10 mg/kg i.p. every two days; lungs analyzed 2 months later
Method: FIGS. 8A-AD. […] Mice were injected with or without Ad-Cre. Lungs were analyzed for adenocarcinoma 2 months later. (8A) LSL-KRas^G12D injected with Ad-Cre. (8B) LSL-KRas^G12D injected with Ad-Cre. […] (8C) LSL-KRas^G12D mice injected with Ad-Ctrl. (8D) wild-type C57BL/6 mice injected with Ad-Cre. Arrows, lung adenocarcinomas. Scale bar=[…].

[4] = test system: Lewis lung carcinoma cells; assay: Subcutaneous Lewis lung carcinoma tumor growth in C57BL/6 mice; format: in vivo, mouse; conditions: s.c. LLC cells
Method: (§2) FIGS. 7A-7E. Inhibition of S1PR3 diminishes lung carcinoma growth. (7A), C57BL/6 mice were subcutaneously inoculated with LLC cells (1×10^6 cells). 1 week later, mice were intraperitoneally administered with VPC23019 (1.5 mg/kg of body weight) or control vehicle every 3 days. (7B), S1PR1 and S1PR3 levels in Lewis lung carcinoma cells. -ve, PCR reactions were performed without cDNA. **, p<0.01, n=6, ANOVA. (7C), CHO cells were transduced with adenoviral particles carrying S1PR1, S1PR2, S1PR3, or pcDNA control vector. Cells were serum-starved for 24 h. […] ERK1/2 activation (p-ERK) was measured by Western blotting analysis. (7D), C57BL/6 mice were subcutaneously inoculated with LLC cells (1×10^6 cells). […] (7E), tumor weights were measured 24 days after implantation. **, p<0.01, n=6, ANOVA.
Tumor Growth and Lung Colonization in Mice. All animal procedures were performed according to the National Institutes of Health and institutional guidelines, and were approved by the Wayne State University Animal Use and Care Committee. For subcutaneous implantation, lung carcinoma cells were adjusted to 1×10^7 cells/ml. Mice were injected with 0.1 ml of cell suspension into the subcutaneous dorsa in the proximal midline. […] Tumor volume was measured in two dimensions using calipers, and volume was determined using the formula width 2×length×0.52 (49). […]

S1PR1 = biological target: T1, S1PR1 (Homo sapiens, UniProt P21453); assay: S1P-stimulated ERK1/2 activation in CHO cells transduced with S1PR1 (Western blot p-ERK); format: cell-based; conditions: TY-52156 10 μM, 10 min, then S1P 200 nM
T1 construct: expressed in transfected cells; host or cells: CHO cells, adenoviral transduction
T1 sequence (P21453 whole entry, species assumed): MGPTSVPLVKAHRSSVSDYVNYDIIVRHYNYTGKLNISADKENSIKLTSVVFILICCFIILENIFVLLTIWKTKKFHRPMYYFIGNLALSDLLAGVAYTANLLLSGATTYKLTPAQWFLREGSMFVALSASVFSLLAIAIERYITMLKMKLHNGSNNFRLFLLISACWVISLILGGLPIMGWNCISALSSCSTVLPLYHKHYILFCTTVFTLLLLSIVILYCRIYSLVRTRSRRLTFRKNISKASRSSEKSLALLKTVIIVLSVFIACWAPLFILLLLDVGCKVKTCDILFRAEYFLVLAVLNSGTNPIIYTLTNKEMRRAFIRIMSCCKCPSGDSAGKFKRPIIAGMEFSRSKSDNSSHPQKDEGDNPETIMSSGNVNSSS
Method: as §2
(§3) Western Blotting Analysis. Protein extraction and Western blotting were performed as described (11). Briefly, cells were collected in ice-cold PBS using cell scrapers followed by centrifugation (500×g, 5 min). […] After centrifugation at 15,000×g for 20 min, supernatant was collected and protein concentration was measured using a bicinchoninic acid protein assay kit with BSA as standard. […]

S1PR2 = biological target: T2, S1PR2 (Homo sapiens, UniProt O95136); assay: S1P-stimulated ERK1/2 activation in CHO cells transduced with S1PR2 (Western blot p-ERK); format: cell-based; conditions: TY-52156 10 μM, 10 min, then S1P 200 nM
T2 construct: expressed in transfected cells; host or cells: CHO cells, adenoviral transduction
T2 sequence (O95136 whole entry, species assumed): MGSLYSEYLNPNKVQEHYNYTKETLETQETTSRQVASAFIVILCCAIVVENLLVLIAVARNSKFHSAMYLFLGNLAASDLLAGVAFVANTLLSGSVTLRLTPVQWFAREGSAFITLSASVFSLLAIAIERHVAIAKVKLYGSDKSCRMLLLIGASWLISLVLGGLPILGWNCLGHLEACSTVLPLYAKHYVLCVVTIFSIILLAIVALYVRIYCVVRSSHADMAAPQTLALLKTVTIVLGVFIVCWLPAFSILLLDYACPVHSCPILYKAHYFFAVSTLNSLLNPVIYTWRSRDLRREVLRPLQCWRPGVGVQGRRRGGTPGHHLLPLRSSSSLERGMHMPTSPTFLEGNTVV
Method: as §2, §3

`NC(=O)c1ccc(-c2nc(-c3ccc4c(c3)OCO4)c(-c3ccccn3)[nH]2)cc1` [SB-431542] was tested, and the “S1PR3 up-regulation in K-Ras G12V-expressing cells” value (S1PR3 expression [1]) was “abrogated” and the “TGF-β-stimulated S1PR3 up-regulation” value (S1PR3 expression [2]) was “abrogated”.
`CCCCCCCCCCCC1N[C@H](C(=O)O)CS1` (some centres unmarked) [CAY10444] was tested, and the “TGF-β-induced IL-6 expression” value (IL-6 expression) was “significantly diminished”.
With `COc1cc2c(cc1OC)CN(C(=O)/C=C/c1c(-c3ccccc3)n(C)c3ncccc13)CC2` [SIS3] the “S1PR3 up-regulation in K-Ras G12V-expressing cells” value (S1PR3 expression [1]) was “abrogated” and the “TGF-β-stimulated S1PR3 up-regulation” value (S1PR3 expression [2]) was “abrogated”.
In the case of `CC(C)(C)C(=O)/C(=N/c1ccc(Cl)cc1)NNc1ccc(Cl)cc1` [TY-52156, 1-(4-chlorophenylhydrazono)-1-(4-chlorophenylamino)-3,3-dimethyl-2-butanone], the “proliferation and colony formation” value [3] is reported as “effective in inhibiting”, the “lung adenocarcinoma in LSL-KRas G12D mouse model” value (lung adenocarcinoma) is reported as “significantly inhibits” and the “growth of Lewis lung carcinoma (tumor volume, tumor weight 24 days after implantation)” value ([4]; 10 mg/kg intraperitoneally every 2 days from 1 week after inoculation, 10 mg/kg) is reported as “significantly suppressed; also recorded: significantly diminished”. The “S1P/S1PR1-stimulated ERK1/2 activation” value (S1PR1) was “had no effect” and the “S1P/S1PR2-stimulated ERK1/2 activation” value (S1PR2) was “had no effect”.
With `CCCCCCCCc1cccc(NC(=O)[C@H](N)COP(=O)(O)O)c1` [VPC23019] the tumor growth ([4]; 1.5 mg/kg intraperitoneally every 3 days from 1 week after inoculation, 1.5 mg/kg) was “significantly inhibited; also recorded: significantly diminished”.
